The record followed here is PubChem BioAssay (NCI).

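96-well plates; 48 h exposure; 5 concentrations. Endpoints by linear interpolation between flanking doses. Not reached: highest tested concentration assigned. GI50 is the concentration that inhibits growth by half. TGI: total growth inhibition.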 Bounds are passed on as bounds.

Some test systems named below: CAKI-1 renal; SK-MEL-2 melanoma; LOX IMVI melanoma; UACC-257 melanoma; A498 renal; SK-MEL-28 melanoma; NCI-H460 lung; HCT-15 colon; SNB-19 CNS; SW-620 colon.
Common to all, as to assay: NCI anticancer screen, dose series, 48 h

Take `COC(=O)c1ccc2c(c1)[n+](=O)c(C(C)=O)c(C(F)(F)F)n2[O-]`: the GI50 is 1.94 µM with CAKI-1 renal; 2.23 µM with SK-MEL-2 melanoma; 1.7 µM with LOX IMVI melanoma; 1.82 µM in the test with UACC-257 melanoma; 1.72 µM with A498 renal; 4.31 µM with SK-MEL-28 melanoma. The GI50 is 1.81 µM with NCI-H460 lung, 1.83 µM in the test with HCT-15 colon, 3.12 µM in the test on SNB-19 CNS and 1.95 µM with SW-620 colon. Besides, the TGI turned out to be 5.07 µM in the test on CAKI-1 renal; 4.8 µM in the test on SK-MEL-2 melanoma; 3.2 µM with LOX IMVI melanoma; 3.31 µM in the test on UACC-257 melanoma; 3.3 µM in the test with A498 renal; 13.2 µM with SK-MEL-28 melanoma. Also, the TGI turned out to be 3.45 µM in the test with NCI-H460 lung, 3.52 µM in the test with HCT-15 colon, 9.12 µM in the test with SNB-19 CNS and 3.83 µM with SW-620 colon.

As to `COc1ccc(NC(=O)CC(=O)n2nc(-c3ccccc3)c(N=Nc3ccc(C)cc3)c2-c2ccccc2)cc1`, the TGI in the test on CAKI-1 renal was over 100 µM; in the test with SK-MEL-2 melanoma, 65.2 µM; in the test on LOX IMVI melanoma, over 100 µM; with UACC-257 melanoma it was over 95.8 µM; in the test with A498 renal it was over 76.5 µM; with SK-MEL-28 melanoma, over 100 µM. In addition, the TGI is 66.3 µM with NCI-H460 lung, over 100 µM in the test with HCT-15 colon, 49.4 µM with SNB-19 CNS and over 100 µM in the test on SW-620 colon.

Regarding `O=C(CCCCCn1c2ccccc2c2c3c(c4c5ccccc5[nH]c4c21)C(=O)N(O)C3=O)N1CCOCC1`, the GI50 with CAKI-1 renal was 2.13 µM; with SK-MEL-2 melanoma it was 2.4 µM; in the test on LOX IMVI melanoma, 1.05 µM; with UACC-257 melanoma it was 3.19 µM; with A498 renal, 1.29 µM; with SK-MEL-28 melanoma, 2.32 µM. For the same molecule, the GI50 in the test with NCI-H460 lung is 2.16 µM; in the test on HCT-15 colon it was 2.67 µM; with SNB-19 CNS it was 3.05 µM; in the test with SW-620 colon, 2.12 µM. For the same molecule, the TGI in the test on CAKI-1 renal worked out at 4.81 µM; in the test with SK-MEL-2 melanoma, 5.47 µM; in the test with LOX IMVI melanoma it was 2.57 µM; in the test with UACC-257 melanoma, 7.76 µM; with A498 renal, 2.7 µM; in the test on SK-MEL-28 melanoma it was 5.4 µM. Also, the TGI in the test with NCI-H460 lung came to 4.69 µM; in the test on HCT-15 colon, 8.32 µM; with SNB-19 CNS it was 36.8 µM; with SW-620 colon it was 6.02 µM.

With `COc1ccc(CNCCN2C(=O)c3ccc4c5c(ccc(c35)C2=O)C(=O)N(CCNCc2ccc(OC)cc2)C4=O)cc1`, the GI50 was 1.04 µM in the test on CAKI-1 renal; 0.313 µM in the test on SK-MEL-2 melanoma; 0.195 µM with LOX IMVI melanoma; 0.184 µM in the test on UACC-257 melanoma; 0.647 µM with A498 renal; 1.21 µM in the test with SK-MEL-28 melanoma. The GI50 in the test on NCI-H460 lung was 0.25 µM; in the test on HCT-15 colon it was 0.179 µM; in the test on SNB-19 CNS, 0.23 µM; in the test with SW-620 colon it was 0.168 µM. The TGI in the test on CAKI-1 renal came out at 3.38 µM; in the test with SK-MEL-2 melanoma, 1.14 µM; in the test on LOX IMVI melanoma it was 0.583 µM; in the test with UACC-257 melanoma it was 0.337 µM; with A498 renal, 2.02 µM; in the test with SK-MEL-28 melanoma, 2.56 µM. Moreover, the TGI in the test on NCI-H460 lung stood at 0.943 µM; in the test with HCT-15 colon, 0.432 µM; in the test with SNB-19 CNS it was 0.717 µM; in the test with SW-620 colon, 0.506 µM.

On to `COC(=O)c1nc(N)[nH]c(=O)c1-c1ccc(Cl)cc1`, for which the TGI in the test on CAKI-1 renal, in the test on SK-MEL-2 melanoma, in the test with LOX IMVI melanoma, in the test with UACC-257 melanoma, with A498 renal and in the test with SK-MEL-28 melanoma was over 100 µM throughout. Besides, the TGI in the test on NCI-H460 lung, in the test on HCT-15 colon, in the test with SNB-19 CNS and in the test on SW-620 colon was over 100 µM in each case.

Regarding `COc1cc(C2C3=C(COC3=O)N(CCO)c3cc4c(cc32)OCCO4)cc(OC)c1O` (stereo unspecified), the GI50 in the test on CAKI-1 renal is 2.84 µM; in the test on LOX IMVI melanoma, 2.49 µM; with UACC-257 melanoma it was over 10.2 µM; in the test on A498 renal, 1.41 µM; in the test on SK-MEL-28 melanoma it was 1.15 µM; with NCI-H460 lung, 1.75 µM. For the same molecule, the GI50 was 11.7 µM in the test with HCT-15 colon, 2.11 µM in the test with SNB-19 CNS and 1.83 µM with SW-620 colon. Also, the TGI was over 45 µM with CAKI-1 renal; over 13.4 µM in the test with SK-MEL-2 melanoma; over 50 µM with LOX IMVI melanoma; over 50 µM in the test on UACC-257 melanoma; over 23.4 µM in the test on A498 renal; over 50 µM with SK-MEL-28 melanoma. Besides, the TGI was over 28.5 µM in the test on NCI-H460 lung, over 50 µM in the test on HCT-15 colon, over 50 µM in the test on SNB-19 CNS and over 50 µM in the test on SW-620 colon.

Regarding `O=C(/C=C(\O)C(=O)O)/C=C(\O)c1ccc(Cl)cc1`, the TGI with CAKI-1 renal, with SK-MEL-2 melanoma, in the test on LOX IMVI melanoma, in the test on UACC-257 melanoma, in the test on A498 renal and with SK-MEL-28 melanoma was over 100 µM throughout. In addition, the TGI in the test with NCI-H460 lung, in the test on HCT-15 colon, with SNB-19 CNS and with SW-620 colon was over 100 µM throughout.

For `CCCCc1c2c(nc3c1CCc1cc(C=O)c(N)nc1-3)/C(=C/c1ccccc1)CCC2`, the TGI in the test on CAKI-1 renal is over 100 µM; with SK-MEL-2 melanoma, over 100 µM; with LOX IMVI melanoma, over 100 µM; with UACC-257 melanoma it was over 100 µM; with A498 renal it was 47.5 µM; in the test on SK-MEL-28 melanoma, over 100 µM. Also, the TGI with NCI-H460 lung, with HCT-15 colon, with SNB-19 CNS and in the test on SW-620 colon was over 100 µM throughout.

For `CC(=O)c1c[nH]c2ccc(-c3ccnc(Nc4ccc(NC(=O)c5cccc(F)c5)c(CN5CCOCC5)c4)n3)cc12`, the GI50 is 0.0526 µM in the test on CAKI-1 renal; 0.18 µM with SK-MEL-2 melanoma; 0.0604 µM in the test on LOX IMVI melanoma; 0.304 µM in the test with UACC-257 melanoma; 0.102 µM in the test with A498 renal; 0.233 µM in the test on SK-MEL-28 melanoma. Further, the GI50 was 0.176 µM in the test with NCI-H460 lung, 0.112 µM with HCT-15 colon, 0.218 µM with SNB-19 CNS and 0.206 µM in the test with SW-620 colon. Moreover, the TGI is 5.02 µM with CAKI-1 renal; 0.549 µM in the test with SK-MEL-2 melanoma; 0.45 µM in the test with LOX IMVI melanoma; 2.65 µM with UACC-257 melanoma; 0.38 µM with A498 renal; 4.25 µM in the test on SK-MEL-28 melanoma. The TGI turned out to be 9.8 µM with SNB-19 CNS and 4.82 µM in the test with SW-620 colon.

On to `NS(=O)(=O)OC[C@H]1O[C@@H](n2cnc3c(N[C@H]4CCc5ccccc54)ncnc32)[C@H](O)[C@@H]1O`, for which the GI50 in the test with CAKI-1 renal was 0.054 µM; in the test with SK-MEL-2 melanoma, 0.098 µM; in the test with LOX IMVI melanoma, 0.0209 µM; with UACC-257 melanoma it was 0.213 µM; with A498 renal, 0.0288 µM; in the test on SK-MEL-28 melanoma, 0.047 µM. Besides, the GI50 with NCI-H460 lung was 0.408 µM; in the test on HCT-15 colon it was 0.857 µM; with SNB-19 CNS, 0.0902 µM; in the test with SW-620 colon, 0.245 µM. Besides, the TGI in the test with CAKI-1 renal is 0.181 µM; with SK-MEL-2 melanoma, 0.434 µM; with LOX IMVI melanoma, 0.0572 µM; with UACC-257 melanoma, 0.577 µM; in the test on A498 renal it was 0.124 µM; in the test with SK-MEL-28 melanoma, 0.276 µM. Moreover, the TGI in the test with NCI-H460 lung was found to be 2.11 µM; in the test with HCT-15 colon, 7.14 µM; in the test on SNB-19 CNS, 2.05 µM; in the test on SW-620 colon, 5.82 µM.

Consider `N=C(N)c1ccc(-c2ccc(-c3ccco3)o2)cc1`, for which the GI50 is 3.94 µM in the test with CAKI-1 renal; 2.41 µM in the test with SK-MEL-2 melanoma; 2.23 µM with LOX IMVI melanoma; 1.84 µM in the test with UACC-257 melanoma; 6.58 µM in the test with A498 renal; 2.31 µM in the test on SK-MEL-28 melanoma. For the same molecule, the GI50 in the test on NCI-H460 lung was 2.43 µM; in the test with HCT-15 colon it was 2.58 µM; with SNB-19 CNS, 9.44 µM; in the test with SW-620 colon it was 1.92 µM. The TGI with CAKI-1 renal turned out to be 16.6 µM; with SK-MEL-2 melanoma, 4.65 µM; in the test with LOX IMVI melanoma, 5.2 µM; in the test on UACC-257 melanoma, 3.73 µM; with A498 renal, 20 µM; in the test with SK-MEL-28 melanoma, 6.22 µM. Moreover, the TGI in the test on NCI-H460 lung amounted to 6.6 µM; in the test on HCT-15 colon, 7.22 µM; with SNB-19 CNS it was 23.2 µM; in the test on SW-620 colon, 4.09 µM.

On to `CC(C)=CCNc1ncnc2c1ncn2C1OC(COP(=O)(O)O)C(O)C1O` (stereo unspecified), for which the GI50 with CAKI-1 renal was 3.6 µM; with SK-MEL-2 melanoma, 16.3 µM; with LOX IMVI melanoma, 0.581 µM; in the test with UACC-257 melanoma, over 100 µM; with A498 renal, 1.53 µM; with SK-MEL-28 melanoma, over 100 µM. Moreover, the GI50 was 7.24 µM in the test on NCI-H460 lung, 2.72 µM in the test on HCT-15 colon, 26.3 µM in the test with SNB-19 CNS and 3.89 µM in the test with SW-620 colon. In addition, the TGI with CAKI-1 renal was over 67.7 µM; with SK-MEL-2 melanoma, 99.8 µM; in the test on LOX IMVI melanoma, 2.55 µM; in the test with UACC-257 melanoma, over 100 µM; in the test with A498 renal, 3.3 µM; in the test on SK-MEL-28 melanoma, over 100 µM. Moreover, the TGI was over 100 µM with NCI-H460 lung, over 64.1 µM with HCT-15 colon, over 100 µM with SNB-19 CNS and over 100 µM in the test with SW-620 colon.

Turning to `COc1cc(OC)c(Oc2cccc(OC)c2OC)c(OC)c1`, the TGI with CAKI-1 renal, in the test on SK-MEL-2 melanoma, in the test on LOX IMVI melanoma, with UACC-257 melanoma, in the test with A498 renal and with SK-MEL-28 melanoma was over 100 µM each time. In addition, the TGI in the test on NCI-H460 lung, in the test with SNB-19 CNS and with SW-620 colon was over 100 µM throughout.
